Measured values from patent US6043220A, “Threonine-containing protegrins” (IntraBiotics Pharmaceuticals, Inc., priority 1997, dated 2000).
Converted amounts (≈) assume the structure as drawn. Square brackets hold non-standard residues; d marks the D form. Ends that are not written are not given here. Dbu = diaminobutyric acid (X in this publication); code O = not defined here; Orn = NCCC[C@H](N)C(=O)O

What was measured:
[1] = tested on: ME-180 (human cervical carcinoma) cells; assay: Cytotoxicity, MTT assay; type: cell-based; conditions: ME-180 cells
Protocol: Native protegrin PG-1 (SEQ ID NO:1) and melittin (SEQ ID NO:19) were tested as controls.

human red blood cells = assay: Hemolytic activity against human red blood cells; conditions: FIG. 1; compared with native PG-1 and melittin
Protocol: In the assay, various concentrations of peptides were incubated with human red blood cells and the percentage of hemolysis determined.

[2] = tested on: vancomycin resistant Enterococcus faecium (VREF); assay: MIC, antimicrobial activity against VREF; type: cell-based
Source text: (§1) Methods were as described in WO 97/18826.

[3] = tested on: Pseudomonas aruginosa (Psa); assay: MIC, antimicrobial activity against Psa; type: cell-based
Source text: as §1

[4] = tested on: methicillin resistant Staphylococcus aureus (MRSA); assay: MIC, antimicrobial activity against MRSA; type: cell-based
Source text: as §1

[5] = tested on: Candida albicans (C. alb); assay: MIC, antimicrobial activity against C. alb; type: cell-based
Source text: as §1

E. coli [6] = assay: In vitro serum availability, MCZ assay, indicator bacteria E. coli; type: cell-based; conditions: 50 μg/mL peptide; 90% serum as diluent; activity in serum vs same peptide without serum (100%)
Protocol: (§2) Peptide was tested at 50 μg/ml against two different strains of indicator bacteria (E. coli and VRE) both in the presence and absence of serum. For experiments performed in the presence of serum, 90% serum was used as the peptide diluent. Native PG-1 (SEQ ID NO:1) was tested as a control.
(§3) Percent availability refers to the activity of the indicated peptide in serum as compared with the activity of the same peptide in the absence of serum (assigned a value of 100%).

VRE = assay: In vitro serum availability, MCZ assay, indicator bacteria VRE; type: cell-based, vancomycin-resistant Enterococcus faecium or faecalis; conditions: 50 μg/mL peptide; 90% serum as diluent; activity in serum vs same peptide without serum (100%)
Protocol: as §2, §3

E. coli [7] = assay: Antimicrobial activity against E. coli in borate buffered saline with and without lysozyme; type: cell-based; conditions: presence vs absence of lysozyme
Source text: The protegrins of the invention retain their activity against microbes in the context of borate solutions that are commonly used in eye care products. […] This effect was more pronounced when the PG-3 was autoclaved and similar patterns were obtained for both the free-acid and the amide forms. Accordingly, the protegrins may be used as preservatives in such compositions or as antimicrobials for treatment of eye infections, such as conjunctivitis and corneal ulcers.

Compound | EC50, MTT assay [1] | hemolytic activity against human red blood cells (in words) (human red blood cells) | MIC VREF [2] | MIC Psa [3] | MIC MRSA [4] | MIC C. alb. [5] | In Vitro Serum Availability (%) E. coli (E. coli [6]) | In Vitro Serum Availability (%) VRE (VRE) | effect of lysozyme on antimicrobial effectiveness (E. coli [7]) | cytotoxicity compared with native PG-1 and melittin (in words) ([1]; MTT assay)
RGGRLCTCRRRFCVCVGR-NH2 (ends and bridges not checked) [[^7 T]PG-1] | 50.4 mg/L | decreased hemolytic activity | – | – | – | – | – | – | – | –
CC(C)C[C@H](NC(=O)[C@H](CCCNC(=N)N)NC(=O)CNC(=O)CNC(=O)[C@@H](N)CCCNC(=N)N)C(=O)N[C@H]1CSSC[C@@H](C(=O)N[C@H](C(=O)NCC(=O)N[C@@H](CCCNC(=N)N)C(N)=O)C(C)C)NC(=O)[C@H](C(C)C)NC(=O)[C@@H]2CSSC[C@H](NC(=O)[C@H](Cc3ccc(O)cc3)NC1=O)C(=O)N[C@@H](CCCNC(=N)N)C(=O)N[C@@H](CCCNC(=N)N)C(=O)N[C@@H](CCCNC(=N)N)C(=O)N[C@@H](Cc1ccccc1)C(=O)N2 [Native PG-1, RGGRLCYCRRRFCVCVGR-NH2, reference compound] | – | hemolytic against human red blood cells | – | – | – | – | – | – | – | –
XTXLCYCXXXFCTCV-NH2 ([Dbu]T[Dbu]LCYC[Dbu][Dbu][Dbu]FCTCV-NH2; not fully specified (N-terminus); cysteine pairing not given here) [*XTXLCYCXXXFCTCV-NH2] | – | – | 1 μ g/ml | 1.3 μ g/ml | 16 μ g/ml | 8 μ g/ml | – | – | – | –
JTCFCOOOFCTCV-NH2 | – | – | 32 μ g/ml | 16 μ g/ml | > 128 μ g/ml | > 128 μ g/ml | – | – | – | –
JLCFCOOOFCTCV-NH2 | – | – | 2 μ g/ml | 4 μ g/ml | 64 μ g/ml | 64 μ g/ml | – | – | – | –
OTOLCYCOZOFCVCV-NH2 | – | – | 8 μ g/ml | 2 μ g/ml | 64 μ g/ml | > 64 μ g/ml | 30% | 8% | – | –
PG-3: naturally-occurring protegrin from porcine leukocytes; free-acid and amide forms (RGGGLCYCRRRFCVCVGR; ends and bridges not checked; also: free acid or amide forms; UniProt P32196 131-148, looked up) | – | – | – | – | – | – | – | – | the presence of lysozyme enhanced the effectiveness | –
RGGRTCYCRRRFCVCVGR-NH2 (ends and bridges not checked) [[^5 T]PG-1] | 101.3 mg/L | decreased hemolytic activity | 0.3 μ g/ml | 2 μ g/ml | 8 μ g/ml | 8 μ g/ml | 10% | 1.6% | – | –
OTTLCYCOGOFCVCVGO-NH2 ([Orn]TTLCYC[Orn]G[Orn]FCVCVG[Orn]-NH2; cysteine pairing not given here) | – | – | 1 μ g/ml | 0.5 μ g/ml | 32 μ g/ml | 32 μ g/ml | 10% | 3% | – | –
CC[C@H](C)[C@H](NC(=O)CN)C(=O)NCC(=O)N[C@@H](C)C(=O)N[C@H](C(=O)N[C@@H](CC(C)C)C(=O)N[C@@H](CCCCN)C(=O)N[C@H](C(=O)N[C@@H](CC(C)C)C(=O)N[C@H](C(=O)N[C@H](C(=O)NCC(=O)N[C@@H](CC(C)C)C(=O)N1CCC[C@H]1C(=O)N[C@@H](C)C(=O)N[C@@H](CC(C)C)C(=O)N[C@H](C(=O)N[C@@H](CO)C(=O)N[C@@H](Cc1c[nH]c2ccccc12)C(=O)N[C@H](C(=O)N[C@@H](CCCCN)C(=O)N[C@@H](CCCNC(=N)N)C(=O)N[C@@H](CCCCN)C(=O)N[C@@H](CCCNC(=N)N)C(=O)N[C@@H](CCC(N)=O)C(=O)N[C@@H](CCC(N)=O)C(N)=O)[C@@H](C)CC)[C@@H](C)CC)[C@@H](C)O)[C@@H](C)O)C(C)C)C(C)C [Melittin, reference compound] | 8.0 mg/L (≈ 2.81 µM) | – | – | – | – | – | – | – | – | –
JTCYCOOOFCVCV-NH2 | – | – | 6.67 μ g/ml | 2 μ g/ml | 32 μ g/ml | > 64 μ g/ml | – | – | – | –
OGGOTCYCOOOFCVCVGO-NH2 ([code O]GG[code O]TCYC[code O][code O][code O]FCVCVG[code O]-NH2; cysteine pairing not given here; reading uncertain; also: printed as OGGOTCYCOOOFCVCVGO-NH2) | – | – | 3.3 μ g/ml | 1 μ g/ml | > 64 μ g/ml | > 64 μ g/ml | 40% | 9% | – | –
RGGRLCYCRRRFCVCTGR-NH2 (ends and bridges not checked) [[^16 T]PG-1] | 122.6 mg/L | decreased hemolytic activity | – | – | – | – | – | – | – | –
RGGRLCYCRRRFCTCVGR-NH2 (ends and bridges not checked) [[^14 T]PG-1] | 154.8 mg/L | decreased hemolytic activity | – | – | – | – | – | – | – | less cytotoxic than native PG-1 and the control peptide melittin
WTCYCOOOFCVCV-NH2 (WTCYC[code O][code O][code O]FCVCV-NH2; cysteine pairing not given here; reading uncertain; also: printed as WTCYCOOOFCVCV-NH2) | – | – | 0.25 μ g/ml | 1 μ g/ml | 16 μ g/ml | 1.6 μ g/ml | 4% | 2% | – | –
